Data: patent publication US20230255954A1, “INTERLEUKIN 33 (IL-33) INHIBITION FOR TREATMENT OF CANCER, FIBROSIS AND INFLAMMATION” (The General Hospital Corporation, priority 2020, published 2023)

How the values were obtained:
[1] = tested on: DNFB treated mice back skin; assay: DNFB chronic skin inflammation model with pitavastatin; assay type: in vivo, mouse
Procedure: Four- to six-week old male and female mice were shaved on their abdomen and sensitized to 50 μL 0.5% 1-Fluoro-2,4-dinitrobenzene (DNFB, Millipore Sigma, St. Louis, Mo., catalog no. 42085) dissolved in acetone plus olive oil at 3:1 ratio (refer to as acetone). Two days after first sensitization, mice were re-sensitized to 50 μL 0.25% DNFB on their abdomen. After 5 days, mice were challenged with 100 μL 0.25% DNFB on their back skin, which was repeated three times per week for 22 days. Skin rash was monitored over the duration of the study.
Mice were treated with 0.5 mM pitavastatin in 200 μL 70% ethanol or 200 μL 70% ethanol alone to their back skin twice a week. Pitavastatin/70% ethanol treatments were given in DNFB doses.
Tissue samples were collected and fixed in 4% paraformaldehyde (Millipore Sigma, catalog no. P6148) overnight at 4° C. Next, tissues were dehydrated in ethanol, processed and embedded in paraffin. 5 μm sections paraffin-embedded tissues were placed on slides, deparaffinized and stained with H&E or toluidine blue (for mast cell detection). For immunohistochemistry, antigen retrieval was performed in 500 μL of antigen unmasking solution (VECTOR Laboratories, Burlingame, Calif., catalog no. H3300) diluted in 50 mL water using Cuisinart pressure cooker for 20 min at high pressure. Slides were washed three times for three minutes each in 1×TBS with 0.025% Triton X-100. Sections were blocked with 1% bovine serum albumin (Thermo Fisher Scientific, catalog no. BP1600) and 5% goat serum (Millipore Sigma, catalog no. G9023) for 1 hour. Slides were stained overnight at 4° C. with a primary antibody diluted in TBS containing 1% BSA (Appendix Table S2). The following day, slides were washed as above and incubated in 100 μL biotinylated secondary antibody (VECTOR Laboratories, catalog no. PK-6200) for 30 min. After washing, slides were incubated with 100 μL mixture of reagent A and B from VECTASTAIN Elite ABC universal kit Peroxidase (VECTOR Laboratories, catalog no. PK-6200) for 30 min. After washing, slides were incubated with 100 μL ImmPACT DAB chromogen stating (VECTOR Laboratories, catalog no. SK-4105) for a few minutes. Finally, slides dehydrated in ethanol and xylene and mounted with a coverslip using 3 drops of mounting media.
Next, we also investigated effect of pitavastatin in vivo chronic inflammation model. […] Next, we studied the effect of pitavastatin treatment on chronic inflammation in mice. […] Furthermore, both IL-33 and nuclear IRF3 were reduced in same epithelial region of DNFB plus pitavastatin versus DNFB plus carrier treated mice (FIGS. 12D and E). Thus, pitavastatin is a small molecule IL-33 inhibitor that suppresses skin inflammation.

[2] = tested on: IRF3 nuclear translocation; assay: Nuclear fractionation assay, IRF3 in poly (I:C) treated Pam212 cells; assay type: cell-based, mouse
Procedure: Pam212 cell line was transfected with poly (I:C) using Lipofectamine 2000 according to the manufacturer's instructions. After 8 hours, cells were lysed using Nuclear Extraction Kit (Novus biologicals, Littleton, Colo., catalog no. NBP2-29447). Briefly, cells were washed with 1×PBS supplemented with PMSF (Novus biologicals, catalog no. KC-407). Cells were centrifuged for 5 min at 1,000 rpm. Cell pellets were resuspended in 1× cold hypotonic buffer (Novus biologicals, catalog no. KC-401) and incubated on ice for 15 min. After adding 10 μL of the 10% detergent solution (Novus biologicals, catalog no. KC-403), cell lysates were centrifuged 10 min at 14,000 rpm. The supernatants were kept as cytoplasmic fraction and the cell pellets were resuspended in 100 μL nuclear lysis buffer (Novus biologicals, catalog no. KC-402). Lysates from the pellets were sonicated for few seconds and incubated for 10 min at 4° C. Then, lysates were centrifuged at 14,000 rpm for 10 min. The supernatants were kept as nuclear fraction.
Next, to investigate the mechanism by which pitavastatin can block IL-33 expression, we first confirmed p-IRF3 expression level because IRF3 is a transcription factor of IL-33 expression. […] However, pitavastatin treatment with Poly (I:C) to Pam212 cells, level of p-IRF3 was decreased (FIG. 11A). […]

[3] = DNFB plus pitavastatin versus DNFB plus carrier
[4] = topical DNFB plus pitavastatin vs DNFB plus carrier

O=C(O)C[C@H](O)C[C@H](O)/C=C/c1c(C2CC2)nc2ccccc2c1-c1ccc(F)cc1 [pitavastatin]
chronic inflammation in back skin ([1]; 0.5 mM pitavastatin in 200 μL 70% ethanol on back skin twice a week, compared to only DNFB treated mice): mild chronic inflammation
IL-33 in epithelial region (staining) [1, 3]: reduced
nuclear IRF3 in epithelial region (staining) [1, 3]: reduced
IL-33 expression, RNA level ([1]; DNFB treated mice skin): decreased
IL-33 expression, protein level ([1]; DNFB treated mice skin): decreased
p-IRF3 ([1]; compared to only DNFB treated group): decreased
epidermal thickness [1, 4]: reduced
mast cell infiltration [1, 4]: reduced
IRF3 localization by nuclear fractionation [2]: remains IRF3 in cytoplasm
